Experimental data taken from patent US8552201B2, “5, 6-bisaryl-2-pyridine-carboxamide derivatives, preparation and application thereof in therapeutics as urotensin II receptor antagonists” (Sanofi, priority 2006, dated 2013).
Structures can show the parent of a compound that is named as a salt.

Key:
human GPR14 receptor = biological target: T1, human GPR14 receptor (Homo sapiens, UniProt Q9UKP6); test: FlipR test of intracellular calcium mobilization (CHO GPR14 cells, urotensin II 3 nM); type: cell-based; conditions: CHOGPR14 cells, inhibition of urotensin II (3 nM final) induced Ca2+ increase, Fluo-4AM
T1 construct: expressed in transfected cells; host or cells: CHO cells (CHOGPR14)
T1 sequence (Q9UKP6 1-389): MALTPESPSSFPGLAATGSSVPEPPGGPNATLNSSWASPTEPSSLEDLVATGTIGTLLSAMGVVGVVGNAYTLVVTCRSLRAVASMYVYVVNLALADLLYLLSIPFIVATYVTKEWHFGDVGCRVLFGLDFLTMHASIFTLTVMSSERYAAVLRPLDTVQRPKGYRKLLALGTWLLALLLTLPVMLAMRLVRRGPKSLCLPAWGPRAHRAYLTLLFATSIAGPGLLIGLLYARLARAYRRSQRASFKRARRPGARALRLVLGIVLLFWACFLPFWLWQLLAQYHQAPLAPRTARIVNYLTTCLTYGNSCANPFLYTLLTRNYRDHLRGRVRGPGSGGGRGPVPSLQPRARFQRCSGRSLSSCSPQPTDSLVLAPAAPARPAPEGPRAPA
Description: (§1) The compounds according to the invention have undergone pharmacological testing for determining the properties of the compounds of the invention, including in particular: • a test in vitro of intracellular calcium mobilization (FlipR test) employing urotensin II antagonists (the compounds of the present invention) of the human GPR14 receptor, • a function test of contraction of rat aorta rings, also employing urotensin II antagonists represented by the compounds of the present invention.
1. FlipR (Fluorometric Imaging Plate Reader) Protocol
The purpose is to measure the activation of the GPR14 receptor by human urotensin II.
GPR14 is a Gq-coupled receptor with 7 transmembrane domains. Its activation by a specific ligand causes an increase in Ca^2+ in the cell via the PLC (Phospholipase C), IP3 (Inositol-1,4,5-triphosphate) DAG (Diacylglycerol) pathway. The increase in Ca^2+ in the cell is measured by means of the Fluo4AM permeating probe (mono-excitation, mono-emission probe) which binds to free Ca^2+ and emits at 520 nm. The free probe is non-fluorescent in the absence of Ca^2+.
1) Seeding of the cells on D−1 (Day−1) or D−2
2) Incorporation/loading (D0) of the probe (1 h)
3) Addition of the products to the FlipR and measurement
4) Addition of the ligand to the FlipR and measurement in the presence of the products
5) Processing and exporting the data
The cells are cultivated in complete medium in Flask T225. For the experiments, the cells are transplanted in 200 μl of culture medium in 96-well (black, transparent-bottom) plates at a rate of 60 000 cells/well for use on D+1 or 40 000 cells/well for use on D+2.
The Fluo-4AM is prepared at 20 mM then aliquots are taken (50 μl) and stored at −20° C. away from the light. A solution of pluronic acid at 200 mg/ml in DMSO is also prepared (it has a shelf life of one week at room temperature away from the light).
The cells are charged with the Fluo-4AM+pluronic acid mixture (aliquot 50 μl+50 μl of pluronic acid) diluted to 1/100 in the measurement buffer.
After washing the wells with 150 μl of measurement buffer (cf. annex), the cells are then charged as follows: • distribution of 100 μl of measurement buffer in each well • addition of 10 μl of the Fluo-4AM+pluronic acid mixture diluted to 1/100.
The cells are incubated for 1 h at 37° C. away from the light, in an incubator in the presence of 5% CO2.
The cells are then washed 3 times with 150 μl of measurement buffer to remove the excess of the probe. A volume of 150 μl of buffer is added to each well at the end of washing.
After incubating the plates for 20 min at room temperature away from the light, they are placed in the FlipR for measurement of fluorescence.
The level of basic incorporation of the Fluo-4 is checked for each plate (sd<10%) before the first injection.
After stabilization of the basic signal, the GPR14 inhibiting compounds are injected by the FlipR under a volume of 50 μl from a dilution plate effected with Biomek 2000 in measurement buffer. […] Data recording is carried out continuously throughout the experiment.
For each plate, the basic fluorescence before injection of the compounds is standardized by the “spatial uniformity correction” function of the FlipR. The values of fluorescence measured just before injection of urotensin II (min) and those of the fluorescence measured at the peak of the effect of urotensin II (max) are exported under Excel. In each plate, a series of wells is treated with urotensin alone in the absence of inhibitor compound. The min and max fluorescence values for these wells are averaged for defining 100% effect of urotensin II. The percentage inhibition calculated for each concentration of inhibitor is calculated as follows: • for each well with Uro II (urotensin II)+inhibitor, calculation of the delta product value=max−min • for the well with Uro II alone, calculation of the value delta Uro II (average max−average min) […]

[1] = biological target: T2, urotensin II receptors (rat aorta rings) (Rattus norvegicus, UniProt P49684); test: Contraction of rat aorta rings induced by human urotensin II; conditions: endothelium-denuded Sprague-Dawley rat aorta rings, antagonist added 30 min before urotensin II, single concentration
T2 construct: The aortas are removed, washed and, after removing the endothelium, are cut into 4 rings; from tissue; host or cells: rat thoracic aorta rings, endothelium removed (Sprague-Dawley)
T2 sequence (P49684 1-386): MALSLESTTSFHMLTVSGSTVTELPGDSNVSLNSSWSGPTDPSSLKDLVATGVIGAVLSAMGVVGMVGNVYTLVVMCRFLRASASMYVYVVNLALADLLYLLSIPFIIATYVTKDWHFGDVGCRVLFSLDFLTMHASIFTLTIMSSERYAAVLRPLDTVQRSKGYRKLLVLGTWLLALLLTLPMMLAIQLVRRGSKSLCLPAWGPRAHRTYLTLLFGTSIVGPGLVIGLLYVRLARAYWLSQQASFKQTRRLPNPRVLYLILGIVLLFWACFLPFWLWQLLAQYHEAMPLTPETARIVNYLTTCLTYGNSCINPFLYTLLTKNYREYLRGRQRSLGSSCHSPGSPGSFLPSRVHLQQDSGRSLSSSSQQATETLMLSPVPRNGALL
Description: as §1
2. Contraction of Rat Aorta
Male Sprague-Dawley rats (400-500 g; C. River, France) are anaesthetized with 6% sodium pentobarbital (Ceva SantéAnimale) by intraperitoneal injection (0.4-0.5 ml), and then euthanized by exsanguination. The aortas are removed, washed and, after removing the endothelium, are cut into 4 rings of about 0.2-0.3 cm. Each fragment is placed in a container for isolated organs, containing 20 mL of Krebs solution with the following composition (mM): NaCl 118; KCl 4.7; MgCl2 1.2; CaCl2 2.6; NaHCO3 25; glucose 11.1; (pH=7.4).
The tissue, maintained at 37° and aerated with a stream of carbogen (95% O2-5% CO2), is connected to a Grass FT03 isometric sensor under a basic strain of 2 g, and to a Gould series 6600 amplifier for recording the variations in strain. Data acquisition is effected automatically on an HP Compaq PC using IOX software (version 2.2) from the company Emka.
After stabilization for 60 min, the viability of the preparation is tested by prestimulation with 60 mM of KCl. This contraction is repeated a second time and the strain that developed will serve as reference (100%) for standardizing the response to urotensin II.
The curve of concentration v. contractile response to urotensin II is then constructed cumulatively until a maximum response is obtained.
A single concentration-response curve is recorded owing to the desensitization effects induced by urotensin II.
The antagonists or the vehicle (DMSO 0.15% maximum) are added to the container 30 min before the agonist.
Human urotensin II is obtained from Bachem Ltd (UK) and is dissolved in 0.1% of BSA.
The responses are expressed as percentage of the maximum contraction observed with KCl. The results represent the mean+/−sem of the individual responses. N corresponds to the number of animals per batch.
Analysis of the sigmoid curves using the Everstat software (De Lean A, Munson P J, Rodbard D., Am J Physiol 1978; 235(2): E97-102.) permitted the EC50 (concentration producing 50% of the maximum response) and the Emax (maximum effect) to be determined.
To evaluate the potency of the antagonists based on a single concentration, the pKb were calculated according to the equation: pKb=−log [antagonist]M+log(concentration-ratio−1) (Furchgott R F, Blaschko H, Muscholl E, editors. Handbook of Exp Pharmacol, Catecholamines, Springer, Berlin Heidelberg N.Y.; 1972; 33:283-335) where concentration-ratio is the EC50 of the agonist in the presence of the antagonist divided by the EC50 of the agonist in the absence of the antagonist.
If several concentrations of antagonist are tested, the pA2 (±confidence limits) is calculated by the Schild plot method (Arunlakshana O and Schild H O, Br J Pharmacol, 1959; 14:48-58).

Row | IC50 (human GPR14 receptor) | Kb [1] | melting point | Structure (SMILES)
1 | 19 nM | 316 nM | – | Cc1ccccc1-c1ccc(C(=O)NC2(C(=O)O)C3CC4CC(C3)CC2C4)nc1-c1ccc(Cl)c(OCCCN(C)C)c1 (stereo not shown) [Compound No. 18, 2-({[6-{4-Chloro-3-[3-(dimethylamino)propoxy]phenyl}-5-(2-methylphenyl)pyridin-2-yl]carbonyl}amino)adamantane-2-carboxylic acid hydrochloride]
2 | 25 nM | 79.4 nM | 146 to 150 °C | Cc1ccccc1-c1ccc(C(=O)NC2(C(=O)O)CCCCC2)nc1-c1ccc(Cl)c(OCCCN(C)C)c1.Cl [compound 34, 1-({[6-{4-Chloro-3-[3-(dimethylamino)propoxy]phenyl}-5-(2-methylphenyl)pyridin-2-yl]carbonyl}amino)cyclohexanecarboxylic acid hydrochloride]
3 | 72 nM | 31.6 nM | – | Cc1ccccc1-c1ccc(C(=O)N[C@@H](CC(=O)O)C(C)C)nc1-c1ccc(Cl)c(OCCCN(C)C)c1 [compound 37]
4 | 28 nM | 251 nM | – | Cc1cccnc1-c1ccc(C(=O)NC2(C(=O)O)CCCCC2)nc1-c1ccc(Cl)c(OCCCN(C)C)c1 [compound 58]
5 | 9 nM | 79.4 nM | – | Cc1ncccc1-c1ccc(C(=O)NC2(C(=O)O)CCCCC2)nc1-c1ccc(Cl)c(OCCCN(C)C)c1 [compound 61]
6 | 32 nM | 316 nM | – | CN(C)CCCOc1cc(-c2nc(C(=O)NC3(C(=O)O)CCCCC3)ccc2-c2ncc(Cl)cc2Cl)ccc1Cl [compound 65, 1-{[(3,5-Dichloro-2′-{4-chloro-3-[3-(dimethylamino)propoxy]phenyl}-2,3′-bipyridin-6′-yl)carbonyl]amino}cyclohexanecarboxylic acid hydrochloride]
7 | 4.2 nM | 200 nM | – | Cc1ccc(-c2ccc(C(=O)NC3(C(=O)O)CCCCC3)nc2-c2ccc(Cl)c(OCCCN(C)C)c2)c(C)c1 [compound 66, 1-({[6-{4-Chloro-3-[3-(dimethylamino)propoxy]phenyl}-5-(2,4-dimethylphenyl)pyridin-2-yl]carbonyl}amino)cyclohexanecarboxylic acid hydrochloride]
8 | 13 nM | 200 nM | – | CCc1ccccc1-c1ccc(C(=O)NC2(C(=O)O)CCCCC2)nc1-c1ccc(Cl)c(OCCCN(C)C)c1 [compound 67]
9 | 32 nM | 631 nM | – | Cc1ccc(C)c(-c2ccc(C(=O)NC3(C(=O)O)CCCCC3)nc2-c2ccc(Cl)c(OCCCN(C)C)c2)c1 [compound 70]
10 | 24 nM | 501 nM | – | Cc1ccccc1-c1ccc(C(=O)NC2(C(=O)O)CCCCCC2)nc1-c1ccc(Cl)c(OCCCN(C)C)c1 [compound 71]
11 | 21 nM | 251 nM | – | Cc1cc(C)n(-c2ccc(C(=O)NC3(C(=O)O)CCCCC3)nc2-c2ccc(Cl)c(OCCCN(C)C)c2)n1 [compound 75, 1-({[6-{4-Chloro-3-[3-(dimethylamino)propoxy]phenyl}-5-(3,5-dimethyl-1H-pyrazol-1-yl)pyridin-2-yl]carbonyl}amino)cyclohexanecarboxylic acid hydrochloride]
12 | 31 nM | 158 nM | – | COc1ccc(-c2ccc(C(=O)NC3(C(=O)O)CCCCC3)nc2-c2ccc(Cl)c(OCCCN(C)C)c2)c(Cl)c1 [compound 79]
13 | 16 nM | 79.4 nM | – | Cc1ccc(C(C)C)cc1-c1ccc(C(=O)NC2(C(=O)O)CCCCC2)nc1-c1ccc(Cl)c(OCCCN(C)C)c1 [compound 120]
14 | 4.2 nM | 316 nM | – | Cc1ccc(-c2ncc(C(=O)NC3(C(=O)O)CCCCC3)nc2-c2ccc(Cl)c(OCCCN(C)C)c2)c(C)c1 [compound 123]
15 | 15 nM | 158 nM | – | Cc1ccccc1-c1nc(N)c(C(=O)NC2(C(=O)O)CCCCC2)nc1-c1ccc(Cl)c(OCCCN(C)C)c1 [compound 129, 1-({[3-amino-6-{4-chloro-3-[3-(dimethylamino)propoxy]phenyl}-5-(2-methylphenyl)pyrazin-2-yl]carbonyl}amino)cyclohexanecarboxylic acid hydrochloride]
